Data taken from PubChem BioAssay (NCI).
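Test compounds were applied to cells in 96-well plates for 48 hours at 5 doses. Here, GI50 denotes the concentration required for 50% inhibition of growth. TGI marks complete inhibition of growth.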

Key:
Assay in all cases: DTP human tumour cell line panel, 48 h
HOP-92 NSCLC = system: HOP-92 NSCLC
HT29 colon = system: HT29 colon
KM12 colon = system: KM12 colon
MALME-3M melanoma = system: MALME-3M melanoma
MDA-N = system: MDA-N
RPMI-8226 leukemia = system: RPMI-8226 leukemia
SF-295 CNS = system: SF-295 CNS
SK-MEL-5 melanoma = system: SK-MEL-5 melanoma
T-47D breast = system: T-47D breast
M14 melanoma = system: M14 melanoma
MDA-MB-435 = system: MDA-MB-435

| Compound | TGI (HOP-92 NSCLC) [µM] | TGI (HT29 colon) [µM] | TGI (KM12 colon) [µM] | TGI (MALME-3M melanoma) [µM] | TGI (MDA-N) [µM] | TGI (RPMI-8226 leukemia) [µM] | TGI (SF-295 CNS) [µM] | TGI (SK-MEL-5 melanoma) [µM] | TGI (T-47D breast) [µM] | TGI (M14 melanoma) [µM] | TGI (MDA-MB-435) [µM] | GI50 (HOP-92 NSCLC) [µM] | GI50 (HT29 colon) [µM] | GI50 (MALME-3M melanoma) [µM] | GI50 (SF-295 CNS) [µM] | GI50 (SK-MEL-5 melanoma) [µM] | GI50 (T-47D breast) [µM] |
| --- | --- | --- | --- | --- | --- | --- | --- | --- | --- | --- | --- | --- | --- | --- | --- | --- | --- |
| O=C(Nc1ccccc1)N(C1=NCC(CI)S1)c1ccc(F)c(F)c1 (stereo not given) | 26.3 | > 100 | > 100 | > 100 | 96.3 | > 100 | > 100 | 37.2 | > 100 | – | – | – | – | – | – | – | – |
| CCO/C(=N/S(=O)(=O)C(F)(F)F)N(C(C)C)C(C)C | > 100 | > 100 | > 100 | > 100 | > 100 | > 100 | – | > 100 | > 100 | > 100 | > 100 | – | – | – | – | – | – |
| Cc1ccc(S(=O)(=O)NC(=O)Nc2nnc(S(N)(=O)=O)s2)cc1 | > 100 | > 100 | > 100 | > 100 | – | > 100 | > 100 | > 100 | – | > 100 | > 100 | – | – | – | – | – | – |
| CNC(C)(C)Cc1ccc(Cl)cc1 | – | > 100 | > 100 | > 100 | – | > 100 | > 100 | > 100 | – | > 100 | – | – | – | – | – | – | – |
| S=C1c2ccc(Cl)cc2-n2cnnc2C2CSCN12 (stereo not given) | – | > 100 | > 100 | > 100 | > 100 | > 100 | > 100 | > 100 | > 100 | > 100 | > 100 | – | – | – | – | – | – |
| O=C(/C=C(/C=C/c1ccc2[nH]ccc2c1)OB(F)F)/C=C/c1ccc2[nH]ccc2c1 | > 100 | > 100 | – | > 100 | – | – | > 100 | 13.3 | > 100 | – | – | 2.68 | 1.47 | 2.62 | 2.28 | 2.98 | 1.99 |
| CC(C)(C)c1ccccc1N1C(=O)c2ccc3c4c(ccc(c24)C1=O)N(c1ccccc1C(C)(C)C)C3=O | > 100 | > 100 | > 100 | – | > 100 | > 100 | > 100 | > 100 | – | > 100 | > 100 | – | – | – | – | – | – |
| COc1ccc(N2CC(=O)N(C(=O)COc3ccc(OCC(=O)N4C(=O)CN(c5ccc(OC)cc5)C4=S)cc3)C2=S)cc1 | > 100 | > 100 | > 100 | > 100 | > 100 | > 100 | > 100 | > 100 | – | > 100 | > 100 | – | – | – | – | – | – |
| O=C(Nc1ccccc1F)c1cc2ccc(O)cc2oc1=Nc1cccc(F)c1 | – | > 100 | 44.7 | 98.7 | 43.3 | > 100 | 18.5 | 18 | 39.3 | 38.6 | 35.7 | – | – | – | – | – | – |
| O=S1(=O)c2ccccc2Oc2ccc(C(/C=N/O)=N/O)cc21 | > 100 | > 100 | > 100 | 25.7 | – | 53.5 | 51.2 | – | 35.6 | > 100 | 52.4 | – | – | – | – | – | – |
| Cc1cc(C)nc(NS(=O)(=O)c2ccc(NC(=O)c3c4ccccc4nc4ccccc34)cc2)n1 | > 100 | > 100 | > 100 | > 100 | > 100 | > 100 | > 100 | > 100 | – | > 100 | > 100 | – | – | – | – | – | – |
| C[C@H](c1ccccc1)N1C(=O)[C@@H](O)[C@H]1[C@H](CO)OCc1ccccc1 | > 100 | > 100 | > 100 | > 100 | > 100 | > 100 | > 100 | > 100 | – | > 100 | > 100 | – | – | – | – | – | – |
| COc1cc2c(c(O)c1O)C(=O)C1CCC(=O)N1C2c1cccc2ccccc12 (stereo not given) | > 50 | > 50 | > 50 | – | > 50 | > 50 | > 50 | – | > 50 | > 50 | > 50 | – | – | – | – | – | – |
| COc1ccc(N2C(=O)C3c4[nH]c5ccc(OCc6ccccc6)cc5c4C4CCC(c5ccccc5)CC4C3C2=O)cc1 (stereo not given) | 10.3 | > 100 | > 85.7 | 45.6 | > 100 | – | 36.5 | > 93.7 | 77.3 | > 100 | 12.1 | – | – | – | – | – | – |
| CC(=O)Nc1ccc2c(C)c3c(nc2n1)[nH]c1ccccc13 | 79 | > 100 | 47.6 | – | 44 | 55.2 | 78.8 | 28 | 55.5 | 82.2 | 87.3 | – | – | – | – | – | – |
| Nc1n(CC(=O)c2ccccc2)nc2sc(-c3ccccc3)n[n+]12 | – | 51.3 | 39.3 | – | – | 58.8 | 55 | 22 | > 100 | > 100 | 8.95 | – | – | – | – | – | – |
| COC(=O)[C@H]1C=NN[C@@H]1C(=O)N1[C@H]2CC3CC[C@@]2(CS1(=O)=O)C3(C)C | > 100 | – | > 100 | > 100 | – | > 100 | > 100 | > 100 | – | > 100 | > 100 | – | – | – | – | – | – |
| COc1cccc(N2C(=O)CSC2c2cccc(Oc3ccccc3)c2)c1 (stereo not given) | 62.8 | 37.5 | > 100 | 53.7 | 5.53 | – | > 100 | 16.9 | > 100 | 51 | > 100 | – | – | – | – | – | – |
| CC(C)=CCN1c2ccccc2NC(=O)CC1C (stereo not given) | > 100 | > 100 | > 100 | > 100 | – | > 100 | > 100 | 85 | > 100 | > 100 | > 100 | – | – | – | – | – | – |
| CC(=O)NC1C(OCc2ccccc2)OC(CO)C(O)C1OCC(=O)N1CCCC1C(=O)N[C@@H](CCC(=O)NCCCCNc1c2ccccc2nc2cccc([N+](=O)[O-])c12)C(N)=O (stereo not given in full) | 28.7 | 50.2 | > 100 | > 100 | 30.6 | > 100 | > 100 | – | > 100 | 40.5 | 54.5 | – | – | – | – | – | – |
| Cn1c(=O)c2c(nc3n(CC(O)CCl)c(=O)ccn23)n(C)c1=O (stereo not given) | > 100 | > 100 | > 100 | – | > 100 | > 100 | > 100 | > 100 | > 100 | > 100 | > 100 | – | – | – | – | – | – |
